Source: patent US11578051B2, “Thiophene carboxamide derivative and plant disease control agent comprising same” (KOREA RESEARCH INSTITUTE OF CHEMICAL TECHNOLOGY, priority 2018, dated 2023)

Tests used:
Type in all cases: in vivo
[1] = tested on: cucumber powdery mildew pathogen (Sphaerotheca fusca); assay: Cucumber powdery mildew control effect test; details: treatment concentration 10 ppm, as in Experimental Example 3
Experimental: A predetermined amount of the present compound corresponding to the test concentration was dissolved in 10% acetone and then was sprayed to foliage in a single leafy cucumber (variety: Baekdadagi) grown in a circular pot (6×7 cm, diameter×height). One day after application, the Cucumber plants were inoculated by spraying a spore suspension prepared with spores obtained from cucumber leaves infected with cucumber powdery mildew pathogen (Sphaerotheca fusca). After an incubation period of 1 day at 20° C. humid conditions, the plants were kept in a chamber for 12 days at a constant temperature and humidity under constant light conditions. After 13 days of the compound treatment, the disease incidence was assessed according to equation (1) of Experimental Example 1, and the control value was determined according to the criteria of Experimental Example 1. Compound No. 1 and the following four compounds as a comparative control compound were evaluated for controlling cucumber powdery mildew as described in Experimental Example 3.

[2] = tested on: cucumber sclerotinia pathogen (Sclerotinia sclerotiorum); assay: Cucumber sclerotinia disease control effect test; details: cucumber (Baekdadagi), foliar spray, active ingredient 200 ppm, spraying dose 30 mL, assessed 4 days after treatment
Experimental: A predetermined amount of the present compound corresponding to the test concentration was dissolved in 10% acetone and then was sprayed to foliage in a single leafy cucumber (cultivar: Baekdadagi) grown in a circular pot (6×7 cm, diameter×height). One day after application, the Cucumber plants were inoculated by spraying a mycelial suspension of a liquid culture of cucumber sclerotinia pathogen (Sclerotinia sclerotiorum) and incubated for 4 days under constant light conditions and high humidity conditions at 25° C. to induce disease development. Four days after the compound treatment, the disease incidence was assessed according to equation (1) of Experimental Example 1, and the control value was determined according to the criteria of Experimental Example 1.

[3] = tested on: rice sheath blight pathogen (Rhizoctonia solani); assay: Rice sheath blight control effect test; details: rice (Chucheongbyeo), foliar spray, active ingredient 200 ppm, spraying dose 30 mL, assessed 5 days after treatment
Experimental: A predetermined amount of the present compound corresponding to the test concentration was dissolved in 10% acetone and then was sprayed to foliage in the 5-leaf stage rice (variety: Chucheongbyeo) grown in a circular pot (6×7 cm, diameter×height). One day after application, the rice plants were inoculated by spraying a mycelial suspension of a culture of rice sheath blight pathogen (Rhizoctonia solani) obtained by culturing in a rice bran culture medium and incubated to induce disease development for 5 days under a humid condition at 30° C. After 5 days of the compound treatment, the disease incidence was assessed according to the equation (1) of Experimental Example 1, and the control value was determined according to the criteria of Experimental Example 1.

SMILES	Activity (control value criterion) [1]	control value criterion [2]	control value criterion [3]
CON=Cc1ccc(-c2ccccc2NC(=O)c2cn(C)nc2C(F)F)cc1 [Comparative compound A, 3-(difluoromethyl)-N-(4′-((methoxyimino)methyl)-[1,1′-biphenyl]-2-yl)-1-methyl-1H-pyrazole-4-carboxamide]	0 (less than 9% control value)		
CON=Cc1ccc(-c2ccccc2NC(=O)c2sccc2C)cc1 [Comparative compound B, N-(4′-((methoxyimino)methyl)-[1,1′-biphenyl]-2-yl)-3-methylthiophene-2-carboxamide]	1 (Control value 10-29%)		
CON=Cc1ccc(-c2ccccc2NC(=O)c2cn(C)nc2C(F)F)cc1F [Comparative compound C, 3-(difluoromethyl)-N-(3′-fluoro-4′-((methoxyimino)methyl)-[1,1′-biphenyl]-2-yl)-1-methyl-1H-pyrazole-4-carboxamide]	0 (less than 9% control value)		
CON=Cc1c(F)cc(-c2ccccc2NC(=O)c2c(C(F)F)nn(C)c2Cl)cc1F [Comparative compound D, 5-chloro-N-(3′,5′-difluoro-4′-((methoxyimino)methyl)-[1,1′-biphenyl]-2-yl)-3-(difluoromethyl)-1-methyl-1H-pyrazole-4-carboxamide]	1 (Control value 10-29%)		
CON=Cc1c(F)cc(-c2ccccc2NC(=O)c2sccc2C)cc1F [Compound 1, N-(3′,5′-difluoro-4′-((methoxyimino)methyl)-[1,1′-biphenyl]-2-yl)-3-methylthiophene-2-carboxamide]	5 (Control value 90-100%)	5 (Control value 90-100%)	5 (Control value 90-100%)
